Experimental data taken from BigSolDB 2.1.

CN1CCN(C(=O)O[C@H]2c3nccnc3C(=O)N2c2ccc(Cl)cn2)CC1
solubility (mole fraction)
Conditions	288.15 K	293.15 K	298.15 K	303.15 K	308.15 K	313.15 K	318.15 K	323.15 K	328.15 K
in acetone	0.0013	0.0015	0.0019	0.0023	0.0027	0.0032	0.0037	–	–
in ethanol	0.0002	0.0003	0.0004	0.0004	0.0005	0.0007	0.0009	0.001	0.0012
